The source of these data is ChEMBL document CHEMBL1201862, “PubChem BioAssay data set” (2004).

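In this assay, cells in 96-well plates receive the compound at five concentrations for 48 hours. Endpoints are linearly interpolated between the surrounding concentrations. Abbreviation: GI50, concentration required for 50% inhibition of growth.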 Active and inactive are the calls of the source. No stated cut-off is given here; in the data, active = GI50 up to about 1.1 µM and inactive = higher. Bounds are passed on as bounds.

Among the test systems are A549; CAKI-1; DMS-273; HT-29; K562; MOLT-4; NCI-H226; NCI-H23; NCI-H460; NCI-H522; OVCAR-5; OVCAR-8; SF-295; SK-MEL-28; SN12C; SNB-75; SW-620; U-251; UACC-257; UO-31.
Assay in all cases: DTP human tumour cell line panel, 48 h

A word on the GI50: it is the concentration that inhibits growth by half. With `CCOC(=O)NC(=O)c1cn(CCN(CCO)C(=O)NCCCCCCNC(=O)N(CCO)CCn2cc(C(=O)NC(=O)OCC)c(=O)[nH]c2=O)c(=O)[nH]c1=O`, the GI50 with A549 is > 100 µM (inactive); with CAKI-1, > 100 µM (inactive); with DMS-273, > 100 µM (inactive); in the test with HT-29, > 61 µM (inactive); in the test on K562, > 100 µM (inactive); in the test with MOLT-4, > 100 µM (inactive). Moreover, the GI50 in the test with NCI-H226, with NCI-H23, in the test on NCI-H460, with NCI-H522, in the test on OVCAR-5 and with OVCAR-8 was > 100 µM (inactive) in each case. The GI50 in the test on SF-295, in the test with SK-MEL-28, in the test on SN12C, with SNB-75, in the test with SW-620 and in the test with U-251 was > 100 µM (inactive) throughout. The GI50 with UACC-257 and in the test on UO-31 was > 100 µM (inactive) throughout.

Turning to `CCCCCCCCCOCC(COP(=O)([O-])OCC[N+](C)(C)C)OC` (stereo not given), the GI50 in the test with A549, with CAKI-1, with DMS-273, in the test on HT-29, in the test on K562 and in the test on MOLT-4 was > 100 µM (inactive) each time. The GI50 is 99.1 µM (inactive) in the test on NCI-H226; > 100 µM (inactive) in the test on NCI-H23; > 100 µM (inactive) in the test with NCI-H460; > 100 µM (inactive) with NCI-H522; > 100 µM (inactive) with OVCAR-5; > 100 µM (inactive) in the test with OVCAR-8. In addition, the GI50 with SF-295, in the test with SK-MEL-28, in the test on SN12C, in the test on SNB-75, in the test on SW-620 and in the test with U-251 was > 100 µM (inactive) in each case. Besides, the GI50 with UACC-257 and in the test on UO-31 was > 100 µM (inactive) throughout.

Regarding `CCCCCCCCCCCCCCCC(=O)OC1C(O)C(CO)OC(OC)C1NC(=O)N(CCCl)N=O` (stereo not given), the GI50 in the test on A549 was 10.3 µM (inactive); with CAKI-1, 32 µM (inactive); in the test on DMS-273 it was 13.1 µM (inactive); in the test with HT-29, 12.8 µM (inactive); in the test on K562 it was 22.3 µM (inactive); in the test with MOLT-4, 3.08 µM (inactive). Further, the GI50 is 16.6 µM (inactive) in the test on NCI-H226; 7.94 µM (inactive) with NCI-H23; 3.78 µM (inactive) in the test with NCI-H460; 10.7 µM (inactive) in the test with NCI-H522; 16.5 µM (inactive) with OVCAR-5; 17.8 µM (inactive) with OVCAR-8. The GI50 in the test on SF-295 was 10.6 µM (inactive); with SK-MEL-28 it was 14.2 µM (inactive); with SNB-75, 12 µM (inactive); in the test on SW-620 it was 10.9 µM (inactive); in the test with U-251, 5.22 µM (inactive); in the test on UACC-257 it was 16.3 µM (inactive). Further, in the test on UO-31, the GI50 is 15.2 µM (inactive).

As to `CC(C)NC(=O)OCc1c2c(n(C)c1COC(=O)NC(C)C)-c1ccccc1CC2`, the GI50 with A549 is 23.7 µM (inactive); in the test with CAKI-1, 9.14 µM (inactive); in the test on DMS-273 it was 13.9 µM (inactive); in the test on HT-29, 15.2 µM (inactive); with K562, 4.26 µM (inactive); in the test with MOLT-4, 2.61 µM (inactive). Also, the GI50 in the test on NCI-H226 was 11.9 µM (inactive); with NCI-H23, 6.71 µM (inactive); with NCI-H460, 14.1 µM (inactive); in the test on NCI-H522, 5.32 µM (inactive); in the test with OVCAR-5, 17.2 µM (inactive); in the test on OVCAR-8, 12 µM (inactive). For the same compound, the GI50 with SF-295 is 15.9 µM (inactive); in the test with SK-MEL-28, 13 µM (inactive); in the test on SN12C, 13 µM (inactive); in the test on SNB-75, 14.1 µM (inactive); in the test with SW-620, 9.2 µM (inactive); with U-251, 9.18 µM (inactive). Further, the GI50 is 15.2 µM (inactive) with UACC-257 and 14.8 µM (inactive) in the test on UO-31.

Turning to `COc1ccc(C(=O)Cc2ccc(Br)cc2)cc1OC`, the GI50 in the test with A549, with CAKI-1, in the test with DMS-273, in the test on HT-29, with K562 and in the test with MOLT-4 was > 100 µM (inactive) throughout. Moreover, the GI50 in the test on NCI-H226 is > 100 µM (inactive); with NCI-H23, > 100 µM (inactive); in the test with NCI-H460, > 100 µM (inactive); with NCI-H522, 79.3 µM (inactive); in the test with OVCAR-5, > 100 µM (inactive); in the test with OVCAR-8, > 100 µM (inactive). The GI50 in the test on SF-295 is 40 µM (inactive); with SN12C, > 100 µM (inactive); in the test with SNB-75 it was 27.5 µM (inactive); in the test with SW-620 it was > 100 µM (inactive); with U-251 it was > 100 µM (inactive); in the test on UACC-257, > 100 µM (inactive). Further, the GI50 in the test with UO-31 was > 100 µM (inactive).

For the compound `Cc1ccc2c(=O)c3ccccc3sc2c1`, the GI50 in the test on A549 is > 100 µM (inactive); in the test with CAKI-1 it was 45.4 µM (inactive); in the test with DMS-273, > 100 µM (inactive); with HT-29, 77.3 µM (inactive); with K562, > 100 µM (inactive); with MOLT-4, 72.8 µM (inactive). Further, the GI50 with NCI-H226, in the test with NCI-H23, with NCI-H460, with NCI-H522, in the test on OVCAR-5 and in the test on OVCAR-8 was > 100 µM (inactive) throughout. Besides, the GI50 in the test on SK-MEL-28, in the test on SN12C, with SW-620, with U-251 and in the test with UO-31 was > 100 µM (inactive) throughout.

As for `COc1ccc(-c2c3ccccc3c(-c3ccc(OCCCCCBr)cc3)c3ccccc23)cc1`, the GI50 with A549, with CAKI-1, in the test with DMS-273, in the test on HT-29, with K562 and in the test with MOLT-4 was > 100 µM (inactive) in each case. The GI50 in the test with NCI-H226, in the test with NCI-H460, in the test on NCI-H522, in the test with OVCAR-5, in the test with OVCAR-8 and in the test with SF-295 was > 100 µM (inactive) in each case. The GI50 in the test with SK-MEL-28, in the test with SN12C, in the test with SW-620 and in the test with UO-31 was > 100 µM (inactive) throughout.

Regarding `CN(C)c1ccc(/N=C2/C=CC(=C(C#N)C#N)c3ccccc32)cc1`, the GI50 was 0.436 µM (active) in the test on A549; 0.55 µM (active) in the test with CAKI-1; 0.303 µM (active) with DMS-273; 0.177 µM (active) in the test with HT-29; 0.0723 µM (active) in the test with K562; 0.196 µM (active) in the test with MOLT-4. Moreover, the GI50 is 0.236 µM (active) in the test with NCI-H226; 0.259 µM (active) with NCI-H23; 0.332 µM (active) with NCI-H460; 0.0555 µM (active) in the test on NCI-H522; 0.326 µM (active) with OVCAR-5; 0.213 µM (active) in the test with OVCAR-8. Further, the GI50 in the test on SF-295 is 0.291 µM (active); with SK-MEL-28, 0.52 µM (active); with SN12C it was 0.332 µM (active); with SNB-75 it was 0.363 µM (active); in the test with SW-620 it was 0.114 µM (active); in the test on U-251, 0.333 µM (active). Moreover, the GI50 is 1.49 µM (inactive) in the test with UACC-257 and 0.893 µM (active) in the test with UO-31.

In the case of `Cc1c2cc[n+](C)cc2c(C)c2c1[nH]c1ccccc12`, the GI50 in the test on A549 is 0.225 µM (active); in the test with CAKI-1 it was 4.39 µM (inactive); in the test on DMS-273, 1.5 µM (inactive); in the test with HT-29 it was 5.83 µM (inactive); with K562, 2.79 µM (inactive); in the test with MOLT-4, 0.912 µM (active). The GI50 with NCI-H226 was 0.34 µM (active); in the test with NCI-H23, 0.714 µM (active); with NCI-H460, 2.06 µM (inactive); with NCI-H522, 0.869 µM (active); in the test with OVCAR-5, 9.84 µM (inactive); with OVCAR-8, 0.399 µM (active). Further, the GI50 is 0.233 µM (active) in the test with SF-295; 1.34 µM (inactive) in the test with SK-MEL-28; 0.16 µM (active) in the test with SN12C; 0.193 µM (active) with SNB-75; 1.17 µM (inactive) in the test with SW-620; 0.379 µM (active) with U-251. Besides, the GI50 with UACC-257 was 5.97 µM (inactive); in the test on UO-31, 15.8 µM (inactive).

With `CCCCCCc1ccc(O)cc1O` [HEXYLRESORCINOL], the GI50 with A549 was 40.6 µM (inactive); in the test on DMS-273 it was > 72.6 µM (inactive); with HT-29, > 100 µM (inactive); in the test on K562, 44.8 µM (inactive); with MOLT-4, 22.9 µM (inactive); with NCI-H226, 57.8 µM (inactive). The GI50 in the test with NCI-H23 is 47.3 µM (inactive); in the test on NCI-H460, 58.3 µM (inactive); with NCI-H522 it was 36.1 µM (inactive); in the test with OVCAR-5 it was > 65.6 µM (inactive); with OVCAR-8 it was > 69 µM (inactive); in the test with SF-295, 46.8 µM (inactive). The GI50 is > 71.9 µM (inactive) in the test with SK-MEL-28; 66.4 µM (inactive) with SN12C; 28.8 µM (inactive) in the test on SNB-75; > 100 µM (inactive) in the test with SW-620; 40.4 µM (inactive) in the test on U-251; 39.5 µM (inactive) with UACC-257. Besides, the GI50 in the test on UO-31 is 24.4 µM (inactive).
